Measured values published in ChEMBL document CHEMBL1201862, “PubChem BioAssay data set” (2004).
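Cultured in 96-well plates, cells were exposed to test compound for 48 hours across five concentrations. Here, GI50 denotes the concentration required for 50% inhibition of growth.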 Calls of active or inactive are those of the source. Cut-off read from the data, not from the text of the source: active = GI50 up to about 1.1 µM and inactive = higher.

Key:
Assay in all cases: DTP human tumour cell line panel, 48 h
786-0 = system: 786-0
A498 = system: A498
A549 = system: A549
ACHN = system: ACHN
BT-549 = system: BT-549
CAKI-1 = system: CAKI-1
CCRF-CEM = system: CCRF-CEM
DU-145 = system: DU-145
EKVX = system: EKVX
HCT-116 = system: HCT-116
HCT-15 = system: HCT-15
HL-60 = system: HL-60
HOP-62 = system: HOP-62
HOP-92 = system: HOP-92
HT-29 = system: HT-29
Hs-578T = system: Hs-578T
IGROV-1 = system: IGROV-1
K562 = system: K562
KM12 = system: KM12
LOX IMVI = system: LOX IMVI
M14 = system: M14
MDA-MB-231 = system: MDA-MB-231
MDA-MB-435 = system: MDA-MB-435
MDA-N = system: MDA-N
MOLT-4 = system: MOLT-4
Malme-3M = system: Malme-3M
NCI-H226 = system: NCI-H226
NCI-H23 = system: NCI-H23
NCI-H460 = system: NCI-H460
NCI-H522 = system: NCI-H522
NCI/ADR-RES = system: NCI/ADR-RES
OVCAR-3 = system: OVCAR-3
OVCAR-4 = system: OVCAR-4
OVCAR-5 = system: OVCAR-5
OVCAR-8 = system: OVCAR-8
PC-3 = system: PC-3
RXF 393 = system: RXF 393
SF-268 = system: SF-268
SF-295 = system: SF-295
SK-MEL-28 = system: SK-MEL-28
SK-MEL-2 = system: SK-MEL-2
SK-MEL-5 = system: SK-MEL-5
SN12C = system: SN12C
SNB-19 = system: SNB-19
SR = system: SR
SW-620 = system: SW-620
T47D = system: T47D
TK-10 = system: TK-10
U-251 = system: U-251
UACC-257 = system: UACC-257
UACC-62 = system: UACC-62
UO-31 = system: UO-31
COLO 205 = system: COLO 205
HCC 2998 = system: HCC 2998
RPMI-8226 = system: RPMI-8226
SF-539 = system: SF-539
SK-OV-3 = system: SK-OV-3
MCF7 = system: MCF7
SNB-75 = system: SNB-75

## COc1ccc(CCCC(=O)O)c(C)c1
786-0
  GI50: 30.1 µM (inactive)
A498
  GI50: 14.3 µM (inactive)
A549
  GI50: 58.6 µM (inactive)
ACHN
  GI50: 35.1 µM (inactive)
BT-549
  GI50: 84.9 µM (inactive)
CAKI-1
  GI50: 17.8 µM (inactive)
CCRF-CEM
  GI50: 17.2 µM (inactive)
DU-145
  GI50: 21.1 µM (inactive)
EKVX
  GI50: > 100 µM (inactive)
HCT-116
  GI50: > 100 µM (inactive)
HCT-15
  GI50: > 100 µM
HL-60
  GI50: 37.5 µM (inactive)
HOP-62
  GI50: 26.4 µM (inactive)
HOP-92
  GI50: 27.4 µM (inactive)
HT-29
  GI50: > 100 µM (inactive)
Hs-578T
  GI50: 43.5 µM (inactive)
IGROV-1
  GI50: 45.1 µM (inactive)
K562
  GI50: 39.3 µM (inactive)
KM12
  GI50: 36.4 µM (inactive)
LOX IMVI
  GI50: 30.1 µM (inactive)
M14
  GI50: 92.9 µM (inactive)
MDA-MB-231
  GI50: 36.1 µM (inactive)
MDA-MB-435
  GI50: 32.8 µM (inactive)
MDA-N
  GI50: 62.4 µM (inactive)
MOLT-4
  GI50: 15.7 µM (inactive)
Malme-3M
  GI50: 27.2 µM (inactive)
NCI-H226
  GI50: 22.7 µM (inactive)
NCI-H23
  GI50: 53.3 µM (inactive)
NCI-H460
  GI50: 11.7 µM (inactive)
NCI-H522
  GI50: 36.8 µM (inactive)
NCI/ADR-RES
  GI50: > 100 µM (inactive)
OVCAR-3
  GI50: 30.3 µM (inactive)
OVCAR-4
  GI50: 48.2 µM (inactive)
OVCAR-5
  GI50: > 100 µM (inactive)
OVCAR-8
  GI50: 74.6 µM (inactive)
PC-3
  GI50: 37.9 µM (inactive)
RXF 393
  GI50: 37.1 µM (inactive)
SF-268
  GI50: 27.4 µM (inactive)
SF-295
  GI50: 38.8 µM (inactive)
SK-MEL-28
  GI50: 91.4 µM (inactive)
SK-MEL-2
  GI50: 39 µM (inactive)
SK-MEL-5
  GI50: 40.3 µM (inactive)
SN12C
  GI50: 32 µM (inactive)
SNB-19
  GI50: 40.1 µM (inactive)
SR
  GI50: 9.48 µM (inactive)
SW-620
  GI50: 59.2 µM (inactive)
T47D
  GI50: 50.8 µM (inactive)
TK-10
  GI50: 81.8 µM (inactive)
U-251
  GI50: 20.8 µM (inactive)
UACC-257
  GI50: 73.5 µM (inactive)
UACC-62
  GI50: 36.8 µM (inactive)
UO-31
  GI50: > 100 µM (inactive)

## CCN(CC)C(=S)SS(=O)(=O)c1ccc(F)cc1
786-0
  GI50: 73.3 µM (inactive)
A498
  GI50: > 100 µM (inactive)
ACHN
  GI50: 43.1 µM (inactive)
BT-549
  GI50: 46.1 µM (inactive)
CAKI-1
  GI50: 41 µM (inactive)
COLO 205
  GI50: > 100 µM (inactive)
DU-145
  GI50: 37.9 µM (inactive)
EKVX
  GI50: > 100 µM (inactive)
HCC 2998
  GI50: > 100 µM (inactive)
HCT-116
  GI50: 25.3 µM (inactive)
HCT-15
  GI50: 66.7 µM
HOP-62
  GI50: 40.6 µM (inactive)
HOP-92
  GI50: 31.2 µM (inactive)
HT-29
  GI50: 22 µM (inactive)
Hs-578T
  GI50: 63 µM (inactive)
K562
  GI50: 23.2 µM (inactive)
KM12
  GI50: 17.8 µM (inactive)
LOX IMVI
  GI50: 19.6 µM (inactive)
M14
  GI50: 29.1 µM (inactive)
MDA-MB-231
  GI50: 32.4 µM (inactive)
MDA-MB-435
  GI50: 38.9 µM (inactive)
MDA-N
  GI50: 63.2 µM (inactive)
Malme-3M
  GI50: 19.9 µM (inactive)
NCI-H226
  GI50: > 100 µM (inactive)
NCI-H23
  GI50: 76.4 µM (inactive)
NCI-H460
  GI50: 42.9 µM (inactive)
NCI-H522
  GI50: 0.0552 µM (active)
NCI/ADR-RES
  GI50: 50.7 µM (inactive)
OVCAR-3
  GI50: > 100 µM (inactive)
OVCAR-4
  GI50: > 100 µM (inactive)
OVCAR-5
  GI50: > 100 µM (inactive)
OVCAR-8
  GI50: 32.1 µM (inactive)
RPMI-8226
  GI50: 17.7 µM (inactive)
RXF 393
  GI50: 18.8 µM (inactive)
SF-268
  GI50: > 100 µM (inactive)
SF-295
  GI50: 75.3 µM (inactive)
SF-539
  GI50: 23 µM (inactive)
SK-MEL-28
  GI50: 14 µM (inactive)
SK-MEL-2
  GI50: 56.4 µM (inactive)
SK-MEL-5
  GI50: 7.41 µM (inactive)
SK-OV-3
  GI50: > 100 µM (inactive)
SN12C
  GI50: 34.5 µM (inactive)
SNB-19
  GI50: > 100 µM (inactive)
SR
  GI50: 0.348 µM (active)
SW-620
  GI50: 17.9 µM (inactive)
T47D
  GI50: 85.1 µM (inactive)
TK-10
  GI50: > 100 µM (inactive)
U-251
  GI50: 18.8 µM (inactive)
UACC-257
  GI50: 28.4 µM (inactive)
UACC-62
  GI50: 19.9 µM (inactive)
UO-31
  GI50: 27.7 µM (inactive)

## CCOC(=O)c1c(NC(=O)c2ccccc2)sc2c1CCC2
786-0
  GI50: > 100 µM (inactive)
A498
  GI50: > 100 µM (inactive)
A549
  GI50: > 100 µM (inactive)
ACHN
  GI50: > 100 µM (inactive)
BT-549
  GI50: > 100 µM (inactive)
CAKI-1
  GI50: > 100 µM (inactive)
CCRF-CEM
  GI50: > 100 µM (inactive)
COLO 205
  GI50: > 100 µM (inactive)
DU-145
  GI50: > 100 µM (inactive)
EKVX
  GI50: > 100 µM (inactive)
HCT-116
  GI50: > 100 µM (inactive)
HCT-15
  GI50: > 100 µM
HL-60
  GI50: > 100 µM (inactive)
HOP-62
  GI50: > 100 µM (inactive)
HT-29
  GI50: > 100 µM (inactive)
Hs-578T
  GI50: > 100 µM (inactive)
IGROV-1
  GI50: > 100 µM (inactive)
K562
  GI50: > 100 µM (inactive)
KM12
  GI50: > 100 µM (inactive)
M14
  GI50: > 100 µM (inactive)
MCF7
  GI50: > 100 µM (inactive)
MDA-MB-231
  GI50: > 100 µM (inactive)
MDA-N
  GI50: > 100 µM (inactive)
MOLT-4
  GI50: > 100 µM (inactive)
NCI-H226
  GI50: > 100 µM (inactive)
NCI-H23
  GI50: > 100 µM (inactive)
NCI-H460
  GI50: > 100 µM (inactive)
NCI/ADR-RES
  GI50: > 100 µM (inactive)
OVCAR-3
  GI50: > 100 µM (inactive)
OVCAR-5
  GI50: > 100 µM (inactive)
OVCAR-8
  GI50: > 100 µM (inactive)
PC-3
  GI50: > 100 µM (inactive)
RPMI-8226
  GI50: > 100 µM (inactive)
RXF 393
  GI50: > 100 µM (inactive)
SF-268
  GI50: > 100 µM (inactive)
SF-295
  GI50: > 100 µM (inactive)
SF-539
  GI50: > 100 µM (inactive)
SK-MEL-2
  GI50: > 100 µM (inactive)
SK-MEL-5
  GI50: > 100 µM (inactive)
SN12C
  GI50: > 100 µM (inactive)
SNB-19
  GI50: > 100 µM (inactive)
SNB-75
  GI50: > 100 µM (inactive)
SR
  GI50: > 100 µM (inactive)
T47D
  GI50: > 100 µM (inactive)
TK-10
  GI50: > 100 µM (inactive)
UACC-257
  GI50: > 100 µM (inactive)
UACC-62
  GI50: > 100 µM (inactive)
UO-31
  GI50: > 100 µM (inactive)
